{"source": "paper PMC9239272", "about": "(mBio, 2022)", "key": {"SARS2 M^pro [1]": {"tested_on": "SARS2 M^pro", "assay_type": "cell-based, SARS-CoV-2"}, "NL63 M^pro [2]": {"tested_on": "NL63 M^pro", "conditions": "in vitro studies; cited from earlier work"}, "SARS2 M^pro [3]": {"tested_on": "SARS2 M^pro", "assay_type": "cell-based, SARS-CoV-2", "remark": "listed apart in the source"}, "229E M^pro": {"tested_on": "229E M^pro", "assay_type": "cell-based, HCoV-229E"}, "NL63 M^pro [4]": {"tested_on": "NL63 M^pro", "assay_type": "cell-based, HCoV-NL63", "conditions": "2-fold dilution series beginning at 100 μM"}}, "note": "pIC50: −log10 of the molar value.", "data": [{"compound": "CCCCCCNC(=O)n1cc(F)c(=O)[nH]c1=O", "note": "[Carmofur]", "values": [{"measurement": "dose responsiveness of WT Luc reporter", "setting": "SARS2 M^pro [1]", "result": "tested negative at all concentrations"}]}, {"compound": "CCOc1ccc2nc3cc(N)ccc3c(N)c2c1", "note": "[Ethacridine]", "values": [{"measurement": "dose responsiveness of WT Luc reporter", "setting": "SARS2 M^pro [1]", "result": "tested negative at all concentrations"}]}, {"compound": "CC(C)(C)NC(=O)N[C@H](C(=O)N1C[C@H]2[C@@H]([C@H]1C(=O)NC(CC1CCC1)C(=O)C(N)=O)C2(C)C)C(C)(C)C", "note": "(some centres unmarked) [boceprevir]", "values": [{"measurement": "pIC50", "setting": "NL63 M^pro [2]", "result": "~4.00"}, {"measurement": "restoration of eGFP fluorescence of WT reporter", "setting": "SARS2 M^pro [3]", "result": "comparatively modest increase in signal"}, {"measurement": "maximal signal increase over background", "setting": "229E M^pro", "result": 4.3, "unit": "fold"}, {"measurement": "maximal signal increase over background", "setting": "NL63 M^pro [4]", "result": 1.9, "unit": "fold"}, {"measurement": "increase in signal of luciferase construct compared with eGFP construct", "setting": "SARS2 M^pro [1]", "result": "~ 3 fold"}, {"measurement": "maximal signal increase over background", "setting": "SARS2 M^pro [1]", "result": 16, "unit": "fold"}]}, {"compound": "O=c1c2ccccc2[se]n1-c1ccccc1", "note": "[ebselen]", "values": [{"measurement": "dose responsiveness of WT Luc reporter", "setting": "SARS2 M^pro [1]", "result": "tested negative at all concentrations"}]}, {"compound": "Cc1ccc(NC(=O)c2ccc(CN3CCN(C)CC3)cc2)cc1Nc1nc(-c2cccnc2)cs1", "note": "[masitinib]", "values": [{"measurement": "dose responsiveness of WT Luc reporter", "setting": "SARS2 M^pro [1]", "result": "tested negative at all concentrations"}]}, {"compound": "CC(C)(C)[C@H](NC(=O)C(F)(F)F)C(=O)N1C[C@H]2[C@@H]([C@H]1C(=O)N[C@H](C#N)C[C@@H]1CCNC1=O)C2(C)C", "note": "[nirmatrelvir]", "values": [{"measurement": "dose responsiveness of WT Luc reporter", "setting": "SARS2 M^pro [1]", "result": "highest reporter signals at all tested concentrations"}]}, {"compound": "GC376", "values": [{"measurement": "restoration of eGFP fluorescence of WT reporter", "setting": "SARS2 M^pro [3]", "result": "strong restoration of expression and eGFP fluorescence"}, {"measurement": "maximal signal increase over background", "setting": "229E M^pro", "result": 72, "unit": "fold"}, {"measurement": "cell viability", "setting": "293T cells; 48 h incubation, wide range of concentrations", "result": "cell viabilities remain consistent"}, {"measurement": "maximal signal increase over background", "setting": "NL63 M^pro [4]", "result": 24, "unit": "fold"}, {"measurement": "dose responsiveness of WT Luc reporter", "setting": "SARS2 M^pro [1]", "result": "causes increased reporter expression"}, {"measurement": "increase in signal of luciferase construct compared with eGFP construct", "setting": "SARS2 M^pro [1]", "result": "~ 3 fold"}, {"measurement": "maximal signal increase over background", "setting": "SARS2 M^pro [1]", "result": 100, "unit": "fold"}]}, {"compound": "GRL-0496", "values": [{"measurement": "cytotoxicity", "setting": "293T cells", "result": "no cytotoxicity"}, {"measurement": "dose responsiveness of WT Luc reporter", "setting": "SARS2 M^pro [1]", "result": "clear positive dose response"}]}]}
